Several values for one entry are separate records, joined by “and”; a condition that tells them apart may be missing. Identical values can stand only once.
Assays:
DTY165 cells = experiment: Fluorescence microscopy of vacuolar bimane-GS accumulation, DTY165 cells; format: cell-based, Saccharomyces cerevisiae; settings: 100 μM monochlorobimane, 6 hours
Procedure: (§1) Cells were grown in YPD medium for 24 hours at 30° C. to an OD600 nm of approximately 1.4, and 100 μl aliquots of the suspensions were transferred to 15 ml volumes of fresh YPD medium containing 100 μM syn-(ClCH2,CH3)-1,5-diazabicyclo-[3.3.0]-[…] (monochlorobimane) (Kosower et al., 1980, J Am. Chem. Soc. 102:4983-4993). After incubation for 6 hours, the cells were pelleted by centrifugation, washed twice with YPD medium lacking monochlorobimane, and viewed without fixation under an Olympus BH-2 fluorescence microscope equipped with a BP-490 UV excitation filter, AFC-0515 barrier filter, and Nomarski optics attachment.

[1] = molecular target: T1, YCF1 (vacuolar membrane vesicles purified from DTY165 cells) (Saccharomyces cerevisiae, UniProt P39109); experiment: [3H]DNP-GS uptake by vacuolar membrane vesicles purified from DTY165 cells; format: biochemical
T1 construct: endogenous in cells; host or cells: S. cerevisiae DTY165 (wild type YCF1), vacuolar membrane vesicles
Outline: (§2)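 ATP-dependent [3H]DNP-GS (66.2 μM) transport measured by filtration and scintillation counting of Ficoll-purified yeast vacuolar vesicles (DTY165 wild type; DTY167 ycf1Δ), 1–60 min at 25 °C in sorbitol/Tris-Mes pH 8.0 with 3 mM ATP, 3 mM MgSO4 and gramicidin-D. Nonenergized uptake without ATP/Mg2+.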

[2] = tested on: vacuolar membrane vesicles purified from DTY167 cells (ycf1Δ mutant); format: biochemical, Saccharomyces cerevisiae; settings: 5 μM gramicidin D, GSH, GSSG 1 mM, GS-conjugates 100 μM
Outline: as §2

DTY167 cells = experiment: Fluorescence microscopy of vacuolar bimane-GS accumulation, DTY167 cells; format: cell-based, Saccharomyces cerevisiae; settings: 100 μM monochlorobimane, 6 hours
Procedure: as §1

[3] = substrate: N[C@@H](CCC(=O)N[C@@H](CSSC[C@H](NC(=O)CC[C@H](N)C(=O)O)C(=O)NCC(=O)O)C(=O)NCC(=O)O)C(=O)O; experiment: cells, lysate or membranes; settings: other: MgATP-dependent, uncoupler-insensitive; pH 8.0
[4] = substrate: N[C@@H](CCC(=O)N[C@@H](CSc1ccc([N+](=O)[O-])cc1[N+](=O)[O-])C(=O)NCC(=O)O)C(=O)O; experiment: AtMRP1-dependent uptake by membrane vesicles from pYES3-AtMRP1-transformed DTY168 cells; format: biochemical, Arabidopsis thaliana; settings: other: MgATP-dependent, uncoupler-insensitive; pH 8.0

T1 sequence (P39109 whole entry): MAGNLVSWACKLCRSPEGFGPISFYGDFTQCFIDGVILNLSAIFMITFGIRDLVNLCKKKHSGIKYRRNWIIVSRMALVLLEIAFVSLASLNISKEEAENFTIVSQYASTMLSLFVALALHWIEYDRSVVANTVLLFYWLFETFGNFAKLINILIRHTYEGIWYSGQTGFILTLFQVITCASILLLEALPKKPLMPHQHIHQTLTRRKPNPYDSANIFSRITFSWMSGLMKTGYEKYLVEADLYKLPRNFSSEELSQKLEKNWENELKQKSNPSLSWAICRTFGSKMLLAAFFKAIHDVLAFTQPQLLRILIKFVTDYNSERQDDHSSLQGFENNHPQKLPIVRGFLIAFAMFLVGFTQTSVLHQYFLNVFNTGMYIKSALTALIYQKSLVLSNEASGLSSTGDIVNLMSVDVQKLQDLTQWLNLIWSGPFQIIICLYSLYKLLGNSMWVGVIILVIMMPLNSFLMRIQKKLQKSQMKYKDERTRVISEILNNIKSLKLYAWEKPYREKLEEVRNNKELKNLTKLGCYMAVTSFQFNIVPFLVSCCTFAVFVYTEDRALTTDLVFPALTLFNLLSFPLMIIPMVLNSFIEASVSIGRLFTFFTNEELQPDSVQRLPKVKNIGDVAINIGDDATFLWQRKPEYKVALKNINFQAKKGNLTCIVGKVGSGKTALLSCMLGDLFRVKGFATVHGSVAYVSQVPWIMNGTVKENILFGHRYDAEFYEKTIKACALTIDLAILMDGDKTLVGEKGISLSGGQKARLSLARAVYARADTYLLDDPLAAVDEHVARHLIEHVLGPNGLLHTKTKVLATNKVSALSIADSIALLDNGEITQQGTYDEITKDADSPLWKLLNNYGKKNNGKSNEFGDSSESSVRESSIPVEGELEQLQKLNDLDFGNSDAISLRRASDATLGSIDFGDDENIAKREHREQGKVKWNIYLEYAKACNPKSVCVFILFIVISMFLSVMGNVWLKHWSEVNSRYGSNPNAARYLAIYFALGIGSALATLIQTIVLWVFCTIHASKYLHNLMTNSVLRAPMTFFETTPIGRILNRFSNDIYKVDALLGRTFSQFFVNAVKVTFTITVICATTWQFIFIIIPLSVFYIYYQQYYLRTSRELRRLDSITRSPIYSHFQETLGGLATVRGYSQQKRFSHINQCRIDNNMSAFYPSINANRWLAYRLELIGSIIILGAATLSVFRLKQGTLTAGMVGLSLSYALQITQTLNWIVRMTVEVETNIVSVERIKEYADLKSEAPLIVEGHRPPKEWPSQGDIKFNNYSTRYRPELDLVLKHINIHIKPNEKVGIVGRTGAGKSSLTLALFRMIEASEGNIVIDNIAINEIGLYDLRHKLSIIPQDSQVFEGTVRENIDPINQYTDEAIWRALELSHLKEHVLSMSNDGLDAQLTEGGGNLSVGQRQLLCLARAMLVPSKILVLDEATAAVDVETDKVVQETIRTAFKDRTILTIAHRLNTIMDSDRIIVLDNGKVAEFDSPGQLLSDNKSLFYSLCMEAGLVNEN

Molecule: Cc1c(C)n2c(CCl)c(C)c(=O)n2c1=O [monochlorobimane, syn-(ClCH2,CH3)-1,5-diazabicyclo-[3.3.0]-octa-3,6-dione-2,8-dione]
- vacuolar fluorescence (bimane-GS) (DTY165 cells): intense punctate fluorescence

Molecule: Cc1c(C)n2c(CSC[C@H](NC(=O)CC[C@H](N)C(=O)O)C(=O)NCC(=O)O)c(C)c(=O)n2c1=O [Bimane-GS]
- MgATP-dependent, uncoupler-insensitive DNP-GS uptake plus compound ([1]; 5 μM gramicidin D, GSH, GSSG 1 mM, GS-conjugates 100 μM): 25.2 ± 1.1 nmol/mg/10 minutes
- MgATP-dependent, uncoupler-insensitive DNP-GS uptake as percentage of control ([1]; 5 μM gramicidin D, GSH, GSSG 1 mM, GS-conjugates 100 μM, 10 min): 52.6%
- inhibition at 100 µM ([1]; 100 μM compound): ~50%
- MgATP-dependent, uncoupler-insensitive DNP-GS uptake plus compound [2]: 4.5 ± 0.4 nmol/mg/10 minutes
- MgATP-dependent, uncoupler-insensitive DNP-GS uptake as percentage of control ([2]; 10 min): 69.2%
- vacuolar fluorescence (bimane-GS) (DTY167 cells): severely attenuated

B1: AtMRP1 (Arabidopsis thaliana) (protein)
chain: MGFEPLDWYCKPVPNGVWTKTVDYAFGAYTPCAIDSFVLGISHLVLLILCLYRLWLITKDHKVDKFCLRSKWFSYFLALLAAYATAEPLFRLVMRISVLDLDGAGFPPYEAFMLVLEAFAWGSALVMTVVETKTYIHELRWYVRFAVIYALVGDMVLLNLVLSVKEYYGSFKLYLYISEVAVQVAFGTLLFVYFPNLDPYPGYTPVGTENSEDYEYEELPGGENICPERHANLFDSIFFSWLNPLMTLGSKRPLTEKDVWHLDTWDKTETLMRSFQKSWDKELEKPKPWLLRALNNSLGGRFWWGGFWKIGNDCSQFVGPLLLNELLKSMQLNEPAWIGYIYAISIFVGVVLGVLCEAQYFQNVMRVGYRLRSALIAAVFRKSLRLTNEGRKKFQTGKITNLMTTDAESLQQICQSLHTMWSAPFRIIVALVLLYQQLGVASIIGALFLVLMFPIQTVIISKTQKLTKEGLQRTDKRIGLMNEVLAAMDTVKCYAWENSFQSKVQTVRDDELSWFRKAQLLSAFNMFILNSIPVLVTVVSFGVFSLLGGDLTPARAFTSLSLFSVLRFPLFMLPNIITQMVNANVSLNRLEEVLSTEERVLLPNPPIEPGQPAISIRNGYFSWDSKADRPTLSNINLDIPLGSLVAVVGSTGEGKTSLISAMLGELPARSDATVTLRGSVAYVPQVSWIFNATVRDNILFGAPFDQEKYERVIDVTALQHDLELLPGGDLTEIGERGVNISGGQKQRVSMARAVYSNSDVCILDDPLSALDAHVGQQVFEKCIKRELGQTTRVLVTNQLHFLSQVDKILLVHEGTVKEEGTYEELCHSGPLFQRLMENAGKVEDYSEENGEAEVDQTSVKPVENGNANNLQKDGIETKNSKEGNSVLVKREERETGVVSWKVLERYQNALGGAWVVMMLVICYVLTQVFRVSSSTWLSEWTDSGTPKTHGPLFYNIVYALLSFGQVSVTLINSYWLIMSSLYAAKKMHDAMLGSILRAPMVFFQTNPLGRIINRFAKDMGDIDRTVAVFVNMFMGSIAQLLSTVILIGIVSTLSLWAIMPLLVVFYGAYLYYQNTSREIKRMDSTTRSPVYAQFGEALNGLSSIRAYKAYDRMAEINGRSMDNNIRFTLVNMAANRWLGIRLEVLGGLMVWLTASLAVMQNGKAANQQAYASTMGLLLSYALSITSSLTAVLRLASLAENSLNSVERVGNYIEIPSEAPLVIENNRPPPGWPSSGSIKFEDVVLRYRPELPPVLHGVSFLISPMDKVGIVGRTGAGKSSLLNALFRIVELEKGRILIDECDIGRFGLMDLRKVLGIIPQAPVLFSGTVRFNLDPFSEHNDADLWESLERAHLKDTIRRNPLGLDAEVTEAGENFSVGQRQLLSLARALLRRSKILVLDEATAAVDVRTDVLIQKTIREEFKSCTMLIIAHRLNTIIDCDKVLVLDSGKVQEFSSPENLLSNGESSFSKMVQSTGTANAEYLRSITLENKRTREANGDDSQPLEGQRKWQASSRWAAAAQFALAVSLTSSHNDLQSLEIEDDNSILKKTKDAVVTLRSVLEGKHDKEIEDSLNQSDISRERWWPSLYKMVEGLAVMSRLARNRMQHPDYNLEGKSFDWDNVEM
notes: S. cerevisiae DTY168 (ycf1 null) vacuolar-enriched membrane vesicles
- Km [3]: 219 µM
- Km [4]: 48.7 ± 15.4 µM and 73.8 µM and 49.7 ± 15.4 µM

B2: AtMRP2 (Arabidopsis thaliana) (protein)
chain: MGFEFIEWYCKPVPNGVWTKQVANAFGAYTPCATDSFVLGISQLVLLVLCLYRIWLALKDHKVERFCLRSRLYNYFLALLAAYATAEPLFRLIMGISVLDFDGPGLPPFEAFGLGVKAFAWGAVMVMILMETKIYIRELRWYVRFAVIYALVGDMVLLNLVLSVKEYYSSYVLYLYTSEVGAQVLFGILLFMHLPNLDTYPGYMPVRSETVDDYEYEEISDGQQICPEKHANIFDKIFFSWMNPLMTLGSKRPLTEKDVWYLDTWDQTETLFTSFQHSWDKELQKPQPWLLRALNNSLGGRFWWGGFWKIGNDCSQFVGPLLLNQLLKSMQEDAPAWMGYIYAFSIFVGVVFGVLCEAQYFQNVMRVGYRLRSALIAAVFRKSLRLTNEGRRKFQTGKITNLMTTDAESLQQICQSLHTMWSAPFRIIIALILLYQQLGVASLIGALLLVLMFPLQTVIISKMQKLTKEGLQRTDKRIGLMNEVLAAMDTVKCYAWENSFQSKVQTVRDDELSWFRKSQLLGALNMFILNSIPVLVTIVSFGVFTLLGGDLTPARAFTSLSLFAVLRFPLFMLPNIITQVVNANVSLKRLEEVLATEERILLPNPPIEPGEPAISIRNGYFSWDSKGDRPTLSNINLDVPLGSLVAVVGSTGEGKTSLISAILGELPATSDAIVTLRGSVAYVPQVSWIFNATVRDNILFGSPFDREKYERAIDVTSLKHDLELLPGGDLTEIGERGVNISGGQKQRVSMARAVYSNSDVYIFDDPLSALDAHVGQQVFEKCIKRELGQKTRVLVTNQLHFLSQVDRIVLVHEGTVKEEGTYEELSSNGPLFQRLMENAGKVEEYSEENGEAEADQTAEQPVANGNTNGLQMDGSDDKKSKEGNKKGGKSVLIKQEERETGVVSWRVLKRYQDALGGAWVVMMLLLCYVLTEVFRVTSSTWLSEWTDAGTPKSHGPLFYNLIYALLSFGQVLVTLTNSYWLIMSSLYAAKKLHDNMLHSILRAPMSFFHTNPLGRIINRFAKDLGDIDRTVAVFVNMFMGQVSQLLSTVVLIGIVSTLSLWAIMPLLVLFYGAYLYYQNTAREVKRMDSISRSPVYAQFGEALNGLSTIRAYKAYDRMADINGRSMDNNIRFTLVNMGANRWLGIRLETLGGLMIWLTASFAVMQNGRAENQQAFASTMGLLLSYALNITSLLTGVLRLASLAENSLNAVERVGNYIEIPPEAPPVIENNRPPPGWPSSGSIKFEDVVLRYRPQLPPVLHGVSFFIHPTDKVGIVGRTGAGKSSLLNALFRIVEVEKGRILIDDCDVGKFGLMDLRKVLGIIPQSPVLFSGTVRFNLDPFGEHNDADLWESLERAHLKDTIRRNPLGLDAEVSEAGENFSVGQRQLLSLSRALLRRSKILVLDEATAAVDVRTDALIQKTIREEFKSCTMLIIAHRLNTIIDCDKILVLDSGRVQEFSSPENLLSNEGSSFSKMVQSTGAANAEYLRSLVLDNKRAKDDSHHLQGQRKWLASSRWAAAAQFALAASLTSSHNDLQSLEIEDDSSILKRTNDAVVTLRSVLEGKHDKEIAESLEEHNISREGWLSSLYRMVEGLAVMSRLARNRMQQPDYNFEGNTFDWDNVEM
- Km [3]: 73.0 ± 15.1 µM

From patent US6166290A, “Glutathione-S-conjugate transport in plants” (The Trustees of the University of Pennsylvania, priority 1997, dated 2000)
